The text below walks through data of US10993984B2, “Terlipressin compositions and their methods of use” (Chiasma, Inc., priority 2016, dated 2021).

Bridge positions count the residues as written; N and C are the ends. Peptide text beside a SMILES is read from it.

The AUC(0-inf) is the area under the concentration-time curve extrapolated to infinity. Read a high AUC(0-inf) as more exposure. The term AUC(0-t) denotes the area under the concentration-time curve up to a stated or last time point. High values mean more exposure, low ones less exposure. Broadly, the Cmax is the peak of the concentration-time curve. A word on the half-life: it is the time needed for the level to fall by half in the phase considered. Read a low half-life as rapid decline.

A short description of this data set: in vivo. The settings on record: dog, iv, 0.2 mg.

Method: The IV dosage was 0.2 mg per dog which is similar to the therapeutic dosage in humans. The oral dosage was 20 mg, and was selected by assuming a BA of about 1%. The concentration of both terlipressin and the active metabolite lysine vasopressin are shown as a function of time. The pharmacokinetic parameters of the active metabolite lysine-vasopressin were determined as well as terlipressin. Each Glypressin ampule contains 1 mg terlipressin acetate, which is equivalent to 0.85 mg terlipressin base. All doses in this study are expressed on the basis of terlipressin base.
All animals were fasted for at least 12 hours prior to dosing and through the first 4 hours of blood sample collection.
In the oral terlipressin capsule treatments, in order to acidify the stomach of the dog, approximately 30 minutes prior to dosing each animal received a single subcutaneous (SC) injection of pentagastrin (0.12 mg/mL) at a dose level of 0.006 mg/kg and a dose volume of 0.05 mL/kg. The same dogs can be used for more than one treatment, with a wash-out period of at least 1 week.
Blood was withdrawn at pre-determined times as follows:

`NCCCC[C@H](NC(=O)[C@@H]1CCCN1C(=O)[C@@H]1CSSC[C@H](NC(=O)CNC(=O)CNC(=O)CN)C(=O)N[C@@H](Cc2ccc(O)cc2)C(=O)N[C@@H](Cc2ccccc2)C(=O)N[C@@H](CCC(N)=O)C(=O)N[C@@H](CC(N)=O)C(=O)N1)C(=O)NCC(N)=O` [IV terlipressin, Terlipressin] (H-GGGCYFQNCPKG-NH2; disulfide 4-9): the AUC(0-inf) was 9.14 ng·h/mL, the AUC(0-t) is 9.13 ng·h/mL, the Cmax amounted to 59.1 ng/mL and the half-life was 13.9 ± 1.32 min.
